These results are taken from patent publication US20190151403A1, “NOVEL CYCLOSPORIN DERIVATIVES AND USES THEREOF” (S&T Global Inc., priority 2016, published 2019).

Read-outs that look alike come from different tables or passages of the source. Starred links: 1 amine or outer side, 2 acyl side, 3 side chain; linkers in the order of their positions; H or OH if unused. Non-standard residues stand in square brackets, D forms with d. Residues, ends and D or L forms follow the SMILES beside them. ξ: configuration not given here. *: point of attachment. NMeThr(4R-Me,4-(CH2)6NHAc) = CN[C@H](C(=O)O)[C@H](O)[C@H](C)CCCCCCNC(C)=O; MeBmt = C/C=C/C[C@@H](C)[C@@H](O)[C@H](NC)C(=O)O; X1 = CCN(CC)CCS[C@H](C(=O)[*:2])N(C)[*:1]; NMeIle(3ξ) = CCC(C)[C@H](NC)C(=O)O; NMeL = CN[C@@H](CC(C)C)C(=O)O; NMeV = CN[C@H](C(=O)O)C(C)C; dNMeC = CN[C@H](CS)C(=O)O; dNMeS = CN[C@H](CO)C(=O)O; dNMeA = CN[C@H](C)C(=O)O; Abu = CC[C@H](N)C(=O)O; Butyl(4-OH) = OCCCC*

Test [1] concerns multi-genotype HCV GT1a to 4a. As to conditions: cited from earlier work.
In test [2] the target is cyclophilin A (Homo sapiens, UniProt P62937). As to conditions: published, Gallay et al. 2016; read-out: cyclophilin binding EC50 for cyclophilin A; cited from earlier work.
The target in test [3] is Cyclophilin D (CyPD) (Homo sapiens, UniProt P30405). Description: Cyclophilin D PPIase inhibition assay. In kind it is biochemical.
For test [4], the target named is T1, Human recombinant CypA (Homo sapiens, UniProt P62937).
T1 construct: purchased Atgen
Description: Cyclophilin A PPIase inhibition, α-chymotrypsin-coupled assay. In kind it is biochemical. As to conditions: 10 nM human recombinant CypA, 5° C, succinyl-AAPF-pNA substrate. Here is the method: Inhibition of CyPA isomerase activity was assessed using the α-chymotrypsin-coupled assay adapted to a 96-well plate format. Human recombinant CypA (Atgen) was dissolved to 10 nM in isomerase buffer (50 mM Hepes, 100 mM NaCl, 1 mg/ml bovine serum albumin, 1 mg/ml a-chymotrypsin; pH 8). Succinyl-AAPF-pNA peptide substrate (Sigma) was dissolved to 3.2 mM in dried LiCl/trifluoroethanol. […] All solutions were equilibrated, and reactions conducted at 5° C. Reactions were initiated by mixing 95 μL reaction mix with 5 μL peptide preloaded in multiple wells of 96-well plates and measuring OD405 nm in each well at 6-sec intervals for 6 min using a BMG Polarstar Galaxy plate reader. Data were fitted with Graphpad Prism 6.0 to obtain first-order rate constants. Enzyme catalyzed rate constants were calculated by subtracting the rate constant from uncatalyzed reactions (no CypA), and the catalytic rate constants plotted as a function of inhibitor concentration to obtain IC50s (see […] et al., 2015, PLOS ONE).

Test [5] deals with HCV replicon in cell line ET (luc-ubi-neo/ET), Huh7 human hepatoma cell line. Description: HCV subgenomic replicon assay (luciferase end point). Type of test: cell-based. Here is the method: Anti-HCV activity of cyclosporine derivatives were evaluated in the HCV subgenomic replicon assay. The assay use the cell line ET (luc-ubi-neo/ET), which is a Huh7 human hepatoma cell line harboring an HCV replicon with a stable luciferase (Luc) reporter. HCV RNA replication was assessed by quantifying HCV replicon-derived luciferase activity. The antiviral activity of cyclosporine analogs were evaluated after drug treatment to derive EC50 and EC90 values by using the luciferase end point (Krieger, N., et al., 2001, J. Viral. 75, 4614-4624; Pietschmann, T., et al., 2002, J. Viral. 76, 4008-4021; each of which is incorporated herein by reference). Cytotoxicity was assessed in parallel.
On the technique in general: A replicon is a self-replicating genome or part of one, used to study replication in cells.

Test [6] relates to HCV. As to conditions: reported by Hopkins et al. 2010; read-out: in vitro anti-HCV activity (EC50); cited from earlier work.
[7] abbreviates: Hepatitis C virus, Huh-7, read-out: Antiviral activity.
[8] abbreviates: HCV subgenomic replicon, Huh7 ET cells, luciferase end point, read-out: Antiviral activity.

Chain of Cyclophilin D (CyPD) (P30405 30-207, species assumed): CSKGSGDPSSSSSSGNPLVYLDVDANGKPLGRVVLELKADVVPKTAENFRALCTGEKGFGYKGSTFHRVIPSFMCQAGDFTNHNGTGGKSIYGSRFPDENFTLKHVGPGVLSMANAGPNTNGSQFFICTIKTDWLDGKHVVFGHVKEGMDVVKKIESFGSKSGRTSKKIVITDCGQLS
T1 sequence (P62937 whole entry): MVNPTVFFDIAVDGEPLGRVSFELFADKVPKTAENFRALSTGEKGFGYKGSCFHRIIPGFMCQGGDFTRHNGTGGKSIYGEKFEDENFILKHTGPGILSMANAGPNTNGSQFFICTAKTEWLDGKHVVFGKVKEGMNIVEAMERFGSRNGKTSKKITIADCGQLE
Chain of cyclophilin A (P62937 whole entry): as above

In general, EC50 refers to the concentration at which the effect is half-maximal. On to `CC=CCC(C)C(O)C1C(=O)NC(CC)C(=O)N(C)C(CSCCCCO)C(=O)N(C)C(CC(C)(C)O)C(=O)NC(C(C)C)C(=O)N(C)C(CC(C)C)C(=O)NC(C)C(=O)NC(C)C(=O)N(C)C(CC(C)C)C(=O)N(C)C(CC(C)C)C(=O)N(C)C(C(C)C)C(=O)N1C` (centres unmarked) [STG-175], for which the “cross-resistance with direct anti-viral agents (DAAs)” value in test [1] is “No cross-resistance is observed”. Moreover, the “viral replication rebound after cessation of drug treatment” value in test [1] (compared with Sofosbuvir) is given as “no viral replication rebound is observed”. The EC50 in test [1] (multi-genotype HCV GT1a to 4a, published, Gallay et al. 2016, read-out: anti-HCV activity EC50) was 11.5 to 38.9 nM; in test [2] it was 0.6 nM.
`C/C=C/C[C@@H](C)[C@@H](O)[C@H]1C(=O)N[C@@H](CC)C(=O)N(C)[C@H](CSCCCCO)C(=O)N(C)[C@@H](CC(C)(C)O)C(=O)N[C@@H](C(C)C)C(=O)N(C)[C@@H](CC(C)C)C(=O)N[C@@H](C)C(=O)N[C@H](C)C(=O)N(C)[C@@H](CC(C)C)C(=O)N(C)[C@@H](CC(C)C)C(=O)N(C)[C@@H](C(C)C)C(=O)N1C` [[(S)-(4-Hydroxylbutylthio)methyl-Sar]-3-[(γ-hydroxy)-N-MeLeu]-4-cyclosporin]: the EC50 in test [3] is < 4 nM. For the same molecule, the IC50 in test [4] is < 4 nM.
Turning to `CC[C@@H]1NC(=O)[C@H]([C@H](O)[C@H](C)CCCCCCNC(C)=O)N(C)C(=O)[C@H](C(C)C)N(C)C(=O)[C@H](CC(C)C)N(C)C(=O)[C@H](CC(C)C)N(C)C(=O)[C@@H](C)NC(=O)[C@H](C)NC(=O)[C@H](CC(C)C)N(C)C(=O)[C@H](C(C)C)NC(=O)[C@H](CC(C)C)N(C)C(=O)CN(C)C1=O` [[8-(2-Acetamidoethyl)-6,7-dihydro-MeBmt]-1-cyclosporin], in test [5] (setting [7]), the IC50 is < 35 nM.
Consider `C/C=C/C[C@@H](C)[C@@H](O)[C@H]1C(=O)N[C@@H](CC)C(=O)N(C)CC(=O)N(C)[C@@H](C(C)C)C(=O)N[C@@H](C(C)C)C(=O)N(C)[C@@H](CC(C)C)C(=O)N[C@@H](C)C(=O)N[C@H](C)C(=O)N(C)[C@@H](CC(C)C)C(=O)N(C)[C@@H](CC(C)C)C(=O)N(C)[C@@H](C(C)C)C(=O)N1C` [[N-MeVal]-4-cyclosporin (SDZ 220-384), N-MeVal-4-Cyclosporin], for which the IC50 in test [5] (setting [8]) fell in the range of 90 to 250 nM.
As to `CC[C@@H]1NC(=O)[C@H]([C@H](O)[C@H](C)CCCCCCNC(C)=O)N(C)C(=O)[C@H](C(C)C)N(C)C(=O)[C@H](CC(C)C)N(C)C(=O)[C@H](CC(C)C)N(C)C(=O)[C@@H](C)NC(=O)[C@H](C)NC(=O)[C@H](CC(C)C)N(C)C(=O)[C@H](C(C)C)NC(=O)[C@H](CC(C)C)N(C)C(=O)[C@@H](C)N(C)C1=O` [[8-(2-Acetamidoethyl)-6,7-dihydro-MeBmt]-1-[(R)-Methyl]-3-cyclosporin] (cyclo(A[dA][NMeL][NMeL][NMeV][NMeThr(4R-Me,4-(CH2)6NHAc)][Abu][dNMeA][NMeL]V[NMeL])), the IC50 in test [5] (setting [7]) is < 35 nM.
Take `CC[C@@H]1NC(=O)[C@H]([C@H](O)[C@H](C)CCCCCCNC(C)=O)N(C)C(=O)[C@H](C(C)C)N(C)C(=O)[C@H](CC(C)C)N(C)C(=O)[C@H](CC(C)C)N(C)C(=O)[C@@H](C)NC(=O)[C@H](C)NC(=O)[C@H](CC(C)C)N(C)C(=O)[C@H](C(C)C)NC(=O)[C@H](CC(C)(C)O)N(C)C(=O)CN(C)C1=O` [[8-(2-Acetamidoethyl)-6,7-dihydro-MeBmt]-1-[(γ-hydroxy)-N-MeLeu]-4-cyclosporin]: in test [5] (setting [7]), the IC50 is < 35 nM.
`CC[C@@H]1NC(=O)[C@H]([C@H](O)[C@H](C)CCCCCCNC(C)=O)N(C)C(=O)[C@H](C(C)C)N(C)C(=O)[C@H](CC(C)C)N(C)C(=O)[C@H](CC(C)C)N(C)C(=O)[C@@H](C)NC(=O)[C@H](C)NC(=O)[C@H](CC(C)C)N(C)C(=O)[C@H](C(C)C)NC(=O)[C@H](CC(C)C)N(C)C(=O)[C@@H](CSCCCCO)N(C)C1=O` [[8-(2-Acetamidoethyl)-6,7-dihydro-MeBmt]-1-[(S)-(4-hydroxybutylthio)methyl-Sar]-3-cyclosporin] (cyclo(A[dA][NMeL][NMeL][NMeV][NMeThr(4R-Me,4-(CH2)6NHAc)][Abu][dNMeC](Butyl(4-OH))[NMeL]V[NMeL])): the EC50 in test [3] was < 4 nM. In addition, the results for the IC50 in test [5] (setting [7]) and in test [4] were < 35 nM and < 4 nM, respectively.
As to `C/C=C/C[C@@H](C)[C@@H](O)[C@H]1C(=O)N[C@@H](CC)C(=O)N(C)[C@H](C)C(=O)N(CC)[C@@H](C(C)C)C(=O)N[C@@H](C(C)C)C(=O)N(C)[C@@H](CC(C)C)C(=O)N[C@@H](C)C(=O)N[C@H](C)C(=O)N(C)[C@@H](CC(C)C)C(=O)N(C)[C@@H](CC(C)C)C(=O)N(C)[C@@H](C(C)C)C(=O)N1C` [Alisporivir], in test [3], the EC50 is < 4 nM. Besides, the IC50 in test [5] (setting [7]) was < 35 nM; in test [4], < 4 nM.
On to `C/C=C/C[C@@H](C)[C@@H](O)[C@H]1C(=O)N[C@@H](CC)C(=O)N(C)[C@H](SCCN(CC)CC)C(=O)N(C)[C@@H](C(C)CC)C(=O)N[C@@H](C(C)C)C(=O)N(C)[C@@H](CC(C)C)C(=O)N[C@@H](C)C(=O)N[C@H](C)C(=O)N(C)[C@@H](CC(C)C)C(=O)N(C)[C@@H](CC(C)C)C(=O)N(C)[C@@H](C(C)C)C(=O)N1C` (stereo partly drawn) [(R)-2-(N,N-Diethylamino)ethylthio-Sar]-3-[N-MeIle]-4-cyclosporin] (cyclo(A[dA][NMeL][NMeL][NMeV][MeBmt][Abu][X1][NMeIle(3ξ)]V[NMeL])), for which the IC50 in test [5] (setting [8]) was < 35 nM.
On to “[8-(2-Acetamidoethyl)-6,7-dihydro-MeBmt]-1-[(S)-(4-hydroxybutylthio)methyl-Sar]-3-[(γ-hydroxy)-N-MeLeu]-4-cyclosporin”, for which, in test [5] (setting [8]), the IC50 is < 35 nM.
Take `CC[C@@H]1NC(=O)[C@H]([C@H](O)[C@H](C)CCCCCCNC(C)=O)N(C)C(=O)[C@H](C(C)C)N(C)C(=O)[C@H](CC(C)C)N(C)C(=O)[C@H](CC(C)C)N(C)C(=O)[C@@H](C)NC(=O)[C@H](C)NC(=O)[C@H](CC(C)C)N(C)C(=O)[C@H](C(C)C)NC(=O)[C@H](CC(C)C)N(C)C(=O)[C@@H](CO)N(C)C1=O` [[8-(2-Acetamidoethyl)-6,7-dihydro-MeBmt]-1-[(R)-hydroxymethyl-Sar]-3-cyclosporin] (cyclo(A[dA][NMeL][NMeL][NMeV][NMeThr(4R-Me,4-(CH2)6NHAc)][Abu][dNMeS][NMeL]V[NMeL])): in test [5] (setting [7]), the IC50 was < 35 nM.
Take `C/C=C/C[C@@H](C)[C@@H](O)[C@H]1C(=O)N[C@@H](CC)C(=O)N(C)[C@H](SCCN(C)C)C(=O)N(C)[C@@H](CC(C)(C)O)C(=O)N[C@@H](C(C)C)C(=O)N(C)[C@@H](CC(C)C)C(=O)N[C@@H](C)C(=O)N[C@H](C)C(=O)N(C)[C@@H](CC(C)C)C(=O)N(C)[C@@H](CC(C)C)C(=O)N(C)[C@@H](C(C)C)C(=O)N1C`: the EC50 in test [3] was 4 to 10 nM. In test [5] (setting [7]), the IC50 is 35 to 90 nM.
With `C/C=C/C[C@@H](C)[C@@H](O)[C@H]1C(=O)N[C@@H](CC)C(=O)N(C)[C@H](SCCN(C)C)C(=O)N(C)[C@@H](CC(C)(C)O)C(=O)N[C@@H](C(C)C)C(=O)N(C)[C@@H](CC(C)C)C(=O)N[C@@H](C)C(=O)N[C@H](C)C(=O)N(C)[C@@H](CC(C)C)C(=O)N(C)[C@@H](CC(C)C)C(=O)N(C)[C@@H](C(C)C)C(=O)N1C` [SCY-635], the EC50 in test [6] was 100 nM.
For `C/C=C/C[C@@H](C)[C@@H](O)[C@H]1C(=O)N[C@@H](CC)C(=O)N(C)CC(=O)N(C)[C@@H]([C@@H](C)CC)C(=O)N[C@@H](C(C)C)C(=O)N(C)[C@@H](CC(C)C)C(=O)N[C@@H](C)C(=O)N[C@H](C)C(=O)N(C)[C@@H](CC(C)C)C(=O)N(C)[C@@H](CC(C)C)C(=O)N(C)[C@@H](C(C)C)C(=O)N1C` [[N-MeIle]-4-cyclosporin (SDZ-NIM-811), N-MeIle-4-Cyclosporin], the IC50 in test [5] (setting [7]) fell in the range of 90 to 250 nM.
